Measurements: ChEMBL document CHEMBL3997794, “Design and synthesis of benzodiazepine analogs as isoform-selective human lysine deacetylase inhibitors” (Eur J Med Chem, 2017)

Tests used:
Histone deacetylase 8 = biological target: T1, Histone deacetylase 8 (Homo sapiens, UniProt Q9BY41); test: Inhibition of human KDAC8 after 60 mins by fluorescence assay
T1 sequence (Q9BY41 whole entry): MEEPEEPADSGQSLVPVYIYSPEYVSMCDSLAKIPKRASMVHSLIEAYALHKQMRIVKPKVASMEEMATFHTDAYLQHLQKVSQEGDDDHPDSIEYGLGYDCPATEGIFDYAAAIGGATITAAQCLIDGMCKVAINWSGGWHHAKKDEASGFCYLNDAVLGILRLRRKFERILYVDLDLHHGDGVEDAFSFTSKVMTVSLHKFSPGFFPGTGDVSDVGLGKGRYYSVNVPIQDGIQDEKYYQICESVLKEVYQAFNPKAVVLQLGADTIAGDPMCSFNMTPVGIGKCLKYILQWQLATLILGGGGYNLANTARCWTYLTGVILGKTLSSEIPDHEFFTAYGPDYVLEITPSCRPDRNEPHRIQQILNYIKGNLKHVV

[1] = biological target: T2, Protein deacetylase HDAC6 (Homo sapiens, UniProt Q9UBN7); test: Inhibition of human KDAC6 using FITC-labeled histone H4 acetylated peptide as substrate after 60 mins by fluorescence assay
T2 sequence (Q9UBN7 whole entry): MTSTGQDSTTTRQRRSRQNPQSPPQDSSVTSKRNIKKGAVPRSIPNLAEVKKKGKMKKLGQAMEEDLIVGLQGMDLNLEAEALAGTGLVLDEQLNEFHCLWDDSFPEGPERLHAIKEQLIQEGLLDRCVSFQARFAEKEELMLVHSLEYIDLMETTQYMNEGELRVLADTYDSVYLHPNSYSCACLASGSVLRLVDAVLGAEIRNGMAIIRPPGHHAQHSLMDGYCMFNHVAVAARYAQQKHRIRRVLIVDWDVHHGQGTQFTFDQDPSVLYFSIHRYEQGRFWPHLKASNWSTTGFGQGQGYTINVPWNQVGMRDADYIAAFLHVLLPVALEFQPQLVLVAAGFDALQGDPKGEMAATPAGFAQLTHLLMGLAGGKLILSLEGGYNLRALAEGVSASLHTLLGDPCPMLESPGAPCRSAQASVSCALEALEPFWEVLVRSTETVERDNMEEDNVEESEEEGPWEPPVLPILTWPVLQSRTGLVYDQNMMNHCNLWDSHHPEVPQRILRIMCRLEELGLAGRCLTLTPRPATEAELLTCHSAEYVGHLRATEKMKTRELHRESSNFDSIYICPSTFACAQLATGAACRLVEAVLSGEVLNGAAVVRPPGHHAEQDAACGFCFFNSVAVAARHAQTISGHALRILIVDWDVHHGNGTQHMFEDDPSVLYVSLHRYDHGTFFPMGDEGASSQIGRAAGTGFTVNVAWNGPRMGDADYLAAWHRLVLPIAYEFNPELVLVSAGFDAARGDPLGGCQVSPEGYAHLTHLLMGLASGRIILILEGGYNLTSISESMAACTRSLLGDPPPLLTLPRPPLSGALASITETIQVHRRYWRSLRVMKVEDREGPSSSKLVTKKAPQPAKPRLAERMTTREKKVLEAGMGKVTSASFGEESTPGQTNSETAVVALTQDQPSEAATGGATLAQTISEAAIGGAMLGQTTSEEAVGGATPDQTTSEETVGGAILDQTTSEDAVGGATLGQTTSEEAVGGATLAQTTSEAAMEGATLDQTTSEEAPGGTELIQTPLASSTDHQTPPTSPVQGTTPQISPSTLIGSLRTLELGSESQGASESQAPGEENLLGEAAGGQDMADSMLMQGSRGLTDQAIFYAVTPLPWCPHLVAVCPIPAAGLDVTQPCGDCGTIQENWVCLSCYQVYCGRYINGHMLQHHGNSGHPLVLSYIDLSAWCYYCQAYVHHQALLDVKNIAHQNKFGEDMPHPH

Histone deacetylase 3 [2] = biological target: T3, Histone deacetylase 3 (Homo sapiens, UniProt O15379); test: Inhibition of human KDAC3 using FITC-labeled p53 acetylated peptide as substrate after 60 mins by fluorescence assay
T3 sequence (O15379 whole entry): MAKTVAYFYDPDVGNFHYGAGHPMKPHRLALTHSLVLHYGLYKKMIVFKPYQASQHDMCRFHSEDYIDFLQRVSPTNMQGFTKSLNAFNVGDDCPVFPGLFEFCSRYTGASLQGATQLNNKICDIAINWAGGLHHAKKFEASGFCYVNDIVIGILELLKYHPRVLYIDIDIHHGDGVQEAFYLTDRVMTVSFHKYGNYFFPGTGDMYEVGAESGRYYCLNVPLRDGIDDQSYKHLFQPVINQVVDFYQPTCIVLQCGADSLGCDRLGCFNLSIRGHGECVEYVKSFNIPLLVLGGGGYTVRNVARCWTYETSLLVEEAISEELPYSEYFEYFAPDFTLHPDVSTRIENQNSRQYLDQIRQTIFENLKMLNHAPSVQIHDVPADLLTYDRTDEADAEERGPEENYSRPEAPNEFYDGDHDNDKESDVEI

Histone deacetylase 1 [3] = biological target: T4, Histone deacetylase 1 (Homo sapiens, UniProt Q13547); test: Inhibition of human KDAC1 using substrate A after 60 mins by fluorescence assay
T4 sequence (Q13547 whole entry): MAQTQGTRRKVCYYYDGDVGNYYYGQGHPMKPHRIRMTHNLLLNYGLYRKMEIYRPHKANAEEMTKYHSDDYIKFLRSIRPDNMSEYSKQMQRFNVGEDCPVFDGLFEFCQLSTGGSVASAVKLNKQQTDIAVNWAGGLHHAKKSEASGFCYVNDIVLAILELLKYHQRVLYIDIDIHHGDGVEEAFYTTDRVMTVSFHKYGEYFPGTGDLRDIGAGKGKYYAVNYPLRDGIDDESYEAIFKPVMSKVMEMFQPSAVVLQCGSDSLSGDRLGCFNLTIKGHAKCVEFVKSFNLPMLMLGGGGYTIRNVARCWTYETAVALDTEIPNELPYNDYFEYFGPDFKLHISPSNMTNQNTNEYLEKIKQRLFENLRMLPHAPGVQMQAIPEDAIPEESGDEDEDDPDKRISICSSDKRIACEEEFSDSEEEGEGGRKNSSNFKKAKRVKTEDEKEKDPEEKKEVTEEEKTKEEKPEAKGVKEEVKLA

[4] = biological target: T5, Histone deacetylase 8 (Homo sapiens) (UniProt Q9BY41); test: Inhibition of human KDAC8 at 30 uM after 60 mins by fluorescence assay relative to control
T5 sequence (whole entry): T1 sequence (Q9BY41 whole entry)

Histone deacetylase 3 [5] = biological target: T3, Histone deacetylase 3; test: Inhibition of human KDAC3 at 30 uM using FITC-labeled p53 acetylated peptide as substrate after 60 mins by fluorescence assay relative to control
Histone deacetylase 1 [6] = biological target: T4, Histone deacetylase 1; test: Inhibition of human KDAC1 at 30 uM using substrate A after 60 mins by fluorescence assay relative to control
[7] = biological target: T6, Protein deacetylase HDAC6 (Homo sapiens) (UniProt Q9UBN7); details: at 30 µM
T6 sequence (whole entry): T2 sequence (Q9UBN7 whole entry)
Description: Inhibition of human KDAC6 at 30 uM using FITC-labeled histone H4 acetylated peptide as substrate after 60 mins by fluorescence assay relative to control

SMILES | IC50 (Histone deacetylase 8) | IC50 [1] | IC50 (Histone deacetylase 3 [2]) | IC50 (Histone deacetylase 1 [3]) | inhibition [4] | inhibition (Histone deacetylase 3 [5]) | inhibition (Histone deacetylase 1 [6]) | inhibition [7]
O=C1CN=C(c2ccccc2)c2ccccc2N1 [RO-052921] | > 30 µM | > 30 µM | > 30 µM | > 30 µM | 2.82% | 3.45% | 7.95% | 0%
COC(=O)CCCCN1C(=O)[C@H](Cc2cc3ccccc3n2C(=O)OC(C)(C)C)N=C(c2ccccc2)c2ccccc21 | > 30 µM | > 30 µM | > 30 µM | > 30 µM | 0% | 0% | 1.64% | 0%
CC(C)(C)OC(=O)CC[C@@H]1N=C(c2ccccc2)c2ccccc2N(CCCCC(=O)O)C1=O | > 30 µM | > 30 µM | > 30 µM | > 30 µM | 9.85% | 23.9% | 7.96% | 0%
N[C@H](Cc1ccc(Cl)cc1Cl)C(=O)N1Cc2ccccc2C1 | 1.09 µM | > 30 µM | 20 µM | 27.4 µM |  |  |  | 
CC[C@H](C)[C@@H]1N=C(c2ccccc2)c2ccccc2N(CCCCC(=O)O)C1=O | > 30 µM | > 30 µM | > 30 µM | > 30 µM | 3.99% | 0% | 0% | 0%
O=C(CCCCN1C(=O)[C@H](CO)N=C(c2ccccc2)c2ccccc21)NO | > 30 µM | 6.35 µM | 4.94 µM | > 30 µM | 19.9% | 85.9% | 41% | 74.4%
C[C@@H](O)[C@@H]1N=C(c2ccccc2)c2ccccc2N(CCCCC(=O)NO)C1=O | > 30 µM | 11.6 µM | 1.8 µM | 11.2 µM | 40.3% | 94.2% | 66.5% | 70.1%
COC(=O)CCCCN1C(=O)[C@H](CCCCNC(=O)OC(C)(C)C)N=C(c2ccccc2)c2ccccc21 | > 30 µM | > 30 µM | > 30 µM | > 30 µM | 1.03% | 1.96% | 8.22% | 0%
Cc1c(C)c(S(=O)(=O)NC(=N)NCCC[C@@H]2N=C(c3ccccc3)c3ccccc3NC2=O)c(C)c2c1OC(C)(C)C2 | > 30 µM | > 30 µM | > 30 µM | > 30 µM | 7.99% | 0.47% | 8% | 0%
COC(=O)CCCCN1C(=O)[C@H](Cc2ccc(OC(C)(C)C)cc2)N=C(c2ccccc2)c2ccccc21 | > 30 µM | > 30 µM | > 30 µM | > 30 µM | 0% | 0.98% | 8.72% | 0%
CC(C)(C)Oc1ccc(C[C@@H]2N=C(c3ccccc3)c3ccccc3N(CCCCC(=O)NO)C2=O)cc1 | 3.3 µM | 2.87 µM | 0.85 µM | 6.18 µM | 89.9% | 98.4% | 82% | 92.1%
CC(C)(C)SC[C@H]1N=C(c2ccccc2)c2ccccc2N(CCCCC(=O)O)C1=O | > 30 µM | > 30 µM | > 30 µM | > 30 µM | 8.31% | 0% | 12.1% | 2.08%
CC(C)(C)OC[C@@H]1N=C(c2ccccc2)c2ccccc2N(CCCCC(=O)O)C1=O | > 30 µM | > 30 µM | > 30 µM | > 30 µM | 5.87% | 0% | 3.74% | 0%
COC(=O)CCCCN1C(=O)[C@H](CCSC)N=C(c2ccccc2)c2ccccc21 | > 30 µM | > 30 µM | > 30 µM | > 30 µM | 0% | 0% | 0% | 0%
CC(C)(C)OC(=O)C[C@H]1N=C(c2ccccc2)c2ccccc2NC1=O | > 30 µM | > 30 µM | > 30 µM | > 30 µM | 0% | 0% | 0.37% | 0%
O=C(O)CCCCN1C(=O)[C@H](CC(=O)O)N=C(c2ccccc2)c2ccccc21 | > 30 µM | > 30 µM | > 30 µM | > 30 µM | 0% | 1.93% | 0% | 0%
N=C(N)NCCC[C@@H]1N=C(c2ccccc2)c2ccccc2N(CCCCC(=O)NO)C1=O | > 30 µM | 2.63 µM | 0.22 µM | 1.44 µM | 27.9% | 101% | 91.8% | 91.2%
COC(=O)CCCCN1C(=O)[C@H](COC(C)(C)C)N=C(c2ccccc2)c2ccccc21 | > 30 µM | > 30 µM | > 30 µM | > 30 µM | 5% | 0% | 0.36% | 0%
CC(C)(C)OC[C@@H]1N=C(c2ccccc2)c2ccccc2NC1=O | > 30 µM | > 30 µM | > 30 µM | > 30 µM | 0% | 0.38% | 1.48% | 2.44%
COC(=O)CCCCN1C(=O)[C@H](Cc2cncn2C(c2ccccc2)(c2ccccc2)c2ccccc2)N=C(c2ccccc2)c2ccccc21 | > 30 µM | > 30 µM | > 30 µM | > 30 µM | 12.1% | 0% | 4.66% | 5.33%
CC(C)(C)OC(=O)n1c(C[C@@H]2N=C(c3ccccc3)c3ccccc3N(CCCCC(=O)O)C2=O)cc2ccccc21 | > 30 µM | > 30 µM | > 30 µM | > 30 µM | 23.2% | 0.79% | 11.3% | 7.4%
COC(=O)CCCCN1C(=O)CN=C(c2ccccc2)c2ccccc21 | > 30 µM | > 30 µM | > 30 µM | > 30 µM | 2.83% | 0% | 0.19% | 0%
O=C(O)C[C@@H]1N=C(c2ccccc2)c2ccccc2N(CCCCC(=O)NO)C1=O | > 30 µM | 19.8 µM | 12.6 µM | > 30 µM | 39.4% | 75.5% | 47.9% | 57.8%
O=C(CCCCN1C(=O)[C@H](Cc2ccc(O)cc2)N=C(c2ccccc2)c2ccccc21)NO | > 30 µM | 8.46 µM | 5.29 µM | > 30 µM | 14.9% | 86.4% | 42.9% | 78.5%
